Results as given in US11691970B2, “Pyrazolopyridinone compounds” (Janssen Pharmaceutica NV, priority 2017, dated 2023).
Where a name gives a salt, the structure may show the parent alone. Read-outs that look alike come from different tables or passages of the source.

Legend:
[1] = target: T1, human FGFR3 wild type enzyme (cytoplasmic domain) (Homo sapiens, UniProt P22607); assay: FGFR3 wild type mobility shift assay (enzymatic assay); format: biochemical; conditions: 75 μM ATP, 50 minutes at 30° C, Caliper EZ reader II
T1 construct: human FGFR3 wild type enzyme (cytoplasmic domain, from Carna Biosciences); purchased Carna Biosciences
T1 sequence (P22607 397-806 limits assumed): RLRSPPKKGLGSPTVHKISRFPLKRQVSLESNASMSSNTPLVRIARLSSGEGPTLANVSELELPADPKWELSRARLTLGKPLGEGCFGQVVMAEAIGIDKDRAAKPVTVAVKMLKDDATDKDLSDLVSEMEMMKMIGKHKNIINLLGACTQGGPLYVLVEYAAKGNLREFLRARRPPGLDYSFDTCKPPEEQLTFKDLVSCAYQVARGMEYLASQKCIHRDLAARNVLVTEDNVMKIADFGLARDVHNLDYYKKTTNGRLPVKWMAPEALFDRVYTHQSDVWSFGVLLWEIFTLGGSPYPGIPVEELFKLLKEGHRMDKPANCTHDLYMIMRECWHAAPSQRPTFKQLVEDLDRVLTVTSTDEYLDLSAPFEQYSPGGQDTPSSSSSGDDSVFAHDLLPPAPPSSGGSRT
Description: FGFR3 Wild Type Mobility Shift Assay (Enzymatic Assay)

[2] = target: T2, NIH/3T3 cells overexpressing FGFR3 WT-TACC3 fusion protein (Homo sapiens, UniProt P22607); assay: NIH/3T3 FGFR3 WT-TACC3 cell proliferation assay (CellTiter Glo); format: cell-based; conditions: 72-hr incubation, top concentration 10 μM, read-out: NIH/3T3 FGFR3 WT-TACC3 CTG (IC50)
T2 construct: NIH/3T3 FGFR3 WT-TACC3 CTG (IC50); other: 72-hr incubation, CellTiter Glo, top concentration 10 μM; fused on or other part: Q9Y6A5 (Transforming acidic coiled-coil-containing protein 3)
T2 sequence (P22607 whole entry, change not shown, the tested form may be a part): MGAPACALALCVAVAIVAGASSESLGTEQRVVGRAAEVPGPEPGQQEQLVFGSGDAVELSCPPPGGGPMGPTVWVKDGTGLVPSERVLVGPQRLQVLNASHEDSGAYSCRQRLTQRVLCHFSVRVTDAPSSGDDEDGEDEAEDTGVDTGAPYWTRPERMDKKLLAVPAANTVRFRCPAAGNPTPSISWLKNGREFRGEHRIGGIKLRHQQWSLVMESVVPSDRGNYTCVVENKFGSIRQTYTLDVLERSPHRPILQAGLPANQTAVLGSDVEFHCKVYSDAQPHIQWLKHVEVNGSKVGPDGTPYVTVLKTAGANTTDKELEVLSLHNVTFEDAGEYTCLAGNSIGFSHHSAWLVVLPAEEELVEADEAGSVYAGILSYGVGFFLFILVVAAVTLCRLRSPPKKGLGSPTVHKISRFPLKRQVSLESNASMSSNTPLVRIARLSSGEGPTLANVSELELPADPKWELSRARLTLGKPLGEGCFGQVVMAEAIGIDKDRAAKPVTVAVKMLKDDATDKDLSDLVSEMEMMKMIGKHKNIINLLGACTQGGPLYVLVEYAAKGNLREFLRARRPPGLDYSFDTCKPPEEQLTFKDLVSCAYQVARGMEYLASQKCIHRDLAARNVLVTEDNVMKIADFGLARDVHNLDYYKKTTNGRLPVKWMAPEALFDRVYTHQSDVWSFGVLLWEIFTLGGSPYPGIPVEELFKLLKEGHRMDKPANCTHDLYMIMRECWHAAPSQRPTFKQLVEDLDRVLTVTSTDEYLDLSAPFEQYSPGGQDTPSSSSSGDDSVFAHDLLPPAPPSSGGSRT
Protocol: NIH/3T3 FGFR3 WT-TACC3 Cell Proliferation Assay
In day 1, 90 μL of cell suspension (NIH/3T3 cells overexpressing FGFR3 WT-TACC3 fusion protein) (total 30,000 cells per well in growth medium (DMEM containing 1% Glutamax, 10% FBS and 1% Pen/Strep)) was seeded in a 96-well plate and then incubated overnight at 37° C. and 5% CO2. […] After 72-hr incubation at 37° C. and 5% CO2, in day 5 a volume of 50 μL CellTiter Glo (CTG) reagent was added into cell-containing 96-well plate and the plate was incubated at room temperature for 10 minutes before RLUs (relative light unit) were measured on a microplate reader with luminescence detection module.

[3] = test system: NIH/3T3 cells transfected with control vector; assay: NIH/3T3 mock cell proliferation assay (counter assay, CellTiter Glo); format: cell-based; conditions: Mus musculus, top concentration 30 μM, counter assay for general toxicity, read-out: NIH/3T3 MOCK CTG (IC50)
Protocol: NIH/3T3 Mock Cell Proliferation Assay
In day 1, 90 μL of cell suspension (NIH/3T3 cells transfected with the same control vector as in the above two proliferation assays) (total 30,000 cells per well in growth medium (DMEM containing 1% Glutamax, 10% FBS and 1% Pen/Strep)) was seeded in a 96-well plate and then incubated overnight at 37° C. and 5% CO2. In day 2, 10 μL of growth medium containing 10-fold stock solution of testing compound was added into cell cultures (9 dose points with 3× serial dilution, starting with 30 μM, 0.3% DMSO final). After 72-hr incubation at 37° C. and 5% CO2, in day 5 a volume of 50 μL CellTiter Glo (CTG) reagent was added into cell-containing 96-well plate and the plate was incubated at room temperature for 10 minutes before RLUs (relative light unit) were measured on a microplate reader with luminescence detection module.

| SMILES | IC50 [1] | GI50 [2] | IC50 ([3]; NIH3T3, 72 h, 72-hr incubation) | IC50 ([3]; NIH3T3, 72-hr incubation) |
| --- | --- | --- | --- | --- |
| Cc1cc2nc(-c3c(N[C@@H](C)c4ncccn4)c4nn(C)cc4[nH]c3=O)[nH]c2cc1C(=O)N1CCCC1 [Compound 2] | 0.903 nM | 21.3 nM | 998 nM | – |
| CCn1cc2[nH]c(=O)c(-c3nc4cnc(N5CCOCC5)cc4[nH]3)c(N[C@@H](C)c3ncccn3)c2n1 [Compound 43, (S)-2-ethyl-6-(6-morpholino-1H-imidazo[4,5-c]pyridin-2-yl)-7-((1-(pyrimidin-2-yl)ethyl)-amino)-2H-pyrazolo[4,3-b]pyridin-5(4H)-one] | 1.04 nM | 12.6 nM | 415 nM | – |
| C[C@H](Nc1c(-c2nc3ccc(N4CCN(C)CC4)cc3[nH]2)c(=O)[nH]c2cn(C)nc12)c1ccccc1 [Compound 18, (S)-2-Methyl-6-(6-(4-methylpiperazin-1-yl)-1H-benzo[d]imidazol-2-yl)-7-((1-phenylethyl)amino)-2H-pyrazolo[4,3-b]pyridin-5(4H)-one] | 2.02 nM | 74.3 nM | 680 nM | – |
| CCn1cc2[nH]c(=O)c(-c3nc4c(F)cc(N5CCOCC5)cc4[nH]3)c(N[C@@H](C)c3ncccn3)c2n1 [Compound 6, (S)-2-ethyl-6-(4-fluoro-6-morpholino-1H-benzo[d]imidazol-2-yl)-7-((1-(pyrimidin-2-yl)-ethyl)amino)-2,4-dihydro-5H-pyrazolo[4,3-b]pyridin-5-one] | 1.16 nM | 13.8 nM | 1280 nM | – |
| COc1cc2nc(-c3c(N[C@@H](C)c4ncccn4)c4nn(C)cc4[nH]c3=O)[nH]c2cc1N1CCOCC1 [Compound 52, (S)-6-(5-methoxy-6-morpholino-1H-benzo[d]imidazol-2-yl)-2-methyl-7-((1-(pyrimidin-2-yl)ethyl)amino)-2H-pyrazolo[4,3-b]pyridin-5(4H)-one] | 0.704 nM | 4.11 nM | 390 nM | – |
| CC(Nc1c(-c2nc3ccc(N4CCN(CC(F)(F)F)CC4)cc3[nH]2)c(=O)[nH]c2cn(C)nc12)c1ncccn1 (single isomer, unassigned) [Compound 26, (S*)-2-methyl-7-((1-(pyrimidin-2-yl)ethyl)amino)-6-(6-(4-(2,2,2-trifluoroethyl)piperazin-1-yl)-1H-benzo[d]imidazol-2-yl)-2H-pyrazolo[4,3-b]pyridin-5(4H)-one] | 0.637 nM | 5.96 nM | 768 nM | – |
| C[C@H](Nc1c(-c2nc3cnc(N4CCOCC4)cc3[nH]2)c(=O)[nH]c2cn(C)nc12)c1cocn1 [Compound 56, (S)-2-methyl-6-(6-morpholino-1H-imidazo[4,5-c]pyridin-2-yl)-7-((1-(oxazol-4-yl)ethyl)-amino)-2,4-dihydro-5H-pyrazolo[4,3-b]pyridin-5-one] | 156 nM | – | – | – |
| CC(Nc1c(-c2nc3ccc(N4CCCCC4)c(F)c3[nH]2)c(=O)[nH]c2cn(C)nc12)c1ncccn1 (single isomer, unassigned) [Compound 16, (R*)-6-(7-fluoro-6-(piperidin-1-yl)-1H-benzo[d]imidazol-2-yl)-2-methyl-7-((1-(pyrimidin-2-yl)ethyl)amino)-2H-pyrazolo[4,3-b]pyridin-5(4H)-one] | 38.1 nM | – | – | – |
| COCC(Nc1c(-c2nc3c(F)cc(N4CCOCC4)cc3[nH]2)c(=O)[nH]c2cn(C)nc12)c1ncccn1 (single isomer, unassigned) [Compound 30, (R*)-6-(4-fluoro-6-morpholino-1H-benzo[d]imidazol-2-yl)-7-((2-methoxy-1-(pyrimidin-2-yl)ethyl)amino)-2-methyl-2H-pyrazolo[4,3-b]pyridin-5(4H)-one] | 469 nM | – | – | – |
| Cc1cc2nc(-c3c(N[C@@H](C)c4cocn4)c4nn(C)cc4[nH]c3=O)[nH]c2cc1N1CCOCC1 [Compound 55, (S)-2-methyl-6-(5-methyl-6-morpholino-1H-benzo[d]imidazol-2-yl)-7-((1-(oxazol-4-yl)-ethyl)amino)-2H-pyrazolo[4,3-b]pyridin-5(4H)-one] | 811 nM | – | – | – |
| CC(Nc1c(-c2nc3ccc(N4C[C@@H](C)O[C@H](C)C4)cc3[nH]2)c(=O)[nH]c2cn(C)nc12)c1ncccn1 (single isomer, unassigned) [Compound 12, 6-(6-((2R,6R)-2,6-dimethylmorpholino)-1H-benzo[d]imidazol-2-yl)-2-methyl-7-(((S*)-1-(pyrimidin-2-yl)ethyl)amino)-2H-pyrazolo[4,3-b]pyridin-5(4H)-one] | – | – | – | 454 nM |
| CC(Nc1c(-c2nc3cc(C(F)(F)F)c(N4CCOCC4)cc3[nH]2)c(=O)[nH]c2cn(C)nc12)c1cocn1 (single isomer, unassigned) [Compound 10, (S*)-2-methyl-6-(6-morpholino-5-(trifluoromethyl)-1H-benzo[d]imidazol-2-yl)-7-((1-(oxazol-4-yl)ethyl)amino)-2H-pyrazolo[4,3-b]pyridin-5(4H)-one] | – | – | – | 18400 nM |
| CC(Nc1c(-c2nc3ccc(N4CCCCC4)cc3[nH]2)c(=O)[nH]c2cn(C)nc12)c1ncccn1 (single isomer, unassigned) [Compound 35, (R*)-2-methyl-6-(6-(piperidin-1-yl)-1H-benzo[d]imidazol-2-yl)-7-((1-(pyrimidin-2-yl)-ethyl)amino)-2H-pyrazolo[4,3-b]pyridin-5(4H)-one] | 39.2 nM | – | – | – |
| C[C@H](Nc1c(-c2nc3ccc(N4CCN(C)CC4)cc3[nH]2)c(=O)[nH]c2cn(C)nc12)c1ncccc1C(F)(F)F (single isomer, unassigned) [Compound 31, (S*)-2-methyl-6-(6-(4-methylpiperazin-1-yl)-1H-benzo[d]imidazol-2-yl)-7-((1-(3-(trifluoromethyl)pyridin-2-yl)ethyl)amino)-2H-pyrazolo[4,3-b]pyridin-5(4H)-one 0.3 formate] | 120 nM | – | – | – |
| CC(Nc1c(-c2nc3cc(C(F)(F)F)c(N4CCOCC4)cc3[nH]2)c(=O)[nH]c2cn(C)nc12)c1ncccn1 (single isomer, unassigned) [Compound 20, (S*)2-Methyl-6-(6-morpholino-5-(trifluoromethyl)-1H-benzo[d]imidazol-2-yl)-7-((1-(pyrimidin-2-yl)ethyl)amino)-2H-pyrazolo[4,3-b]pyridin-5(4H)-one] | 1240 nM | – | – | – |
| CCC(Nc1c(-c2nc3ccc(N4CCOCC4)cc3[nH]2)c(=O)[nH]c2cn(C)nc12)c1ncccn1 (single isomer, unassigned) [Compound 40, (R*)-2-methyl-6-(6-morpholino-1H-benzo[d]imidazol-2-yl)-7-((1-(pyrimidin-2-yl)-propyl)amino)-2H-pyrazolo[4,3-b]pyridin-5(4H)-one] | 531 nM | – | – | – |
| COc1cc(N2CCOCC2)cc2[nH]c(-c3c(NC(C)c4ncccn4)c4nn(C)cc4[nH]c3=O)nc12 (single isomer, unassigned) [Compound 50, (R*)-6-(4-methoxy-6-morpholino-1H-benzo[d]imidazol-2-yl)-2-methyl-7-((1-(pyrimidin-2-yl)ethyl)amino)-2,4-dihydro-5H-pyrazolo[4,3-b]pyridin-5-one] | 95.7 nM | – | – | – |
| CC[C@H](Nc1c(-c2nc3ccc(N4CCOCC4)cc3[nH]2)c(=O)[nH]c2cn(CC)nc12)c1ncccn1 (single isomer, unassigned) [Compound 3, (S*)-2-ethyl-6-(6-morpholino-1H-benzo[d]imidazol-2-yl)-7-((1-(pyrimidin-2-yl)propyl)-amino)-2H-pyrazolo[4,3-b]pyridin-5(47f)-one] | 88.3 nM | – | – | – |
| C[C@H](Nc1c(-c2nc3c(F)cc(N4CCOCC4)c(F)c3[nH]2)c(=O)[nH]c2cn(C)nc12)c1ncccn1 (single isomer, unassigned) [Compound 17, (S*)-6-(4,7-difluoro-6-morpholino-1H-benzo[d]imidazol-2-yl)-2-methyl-7-((1-(pyrimidin-2-yl)ethyl)amino)-2H-pyrazolo[4,3-b]130pyridine-5(4H)-one] | 46.5 nM | – | – | – |
| CCn1cc2[nH]c(=O)c(-c3nc4ccc(N5CCOCC5)cc4[nH]3)c(NC(C)c3cocn3)c2n1 (single isomer, unassigned) [Compound 4B, (R*)-2-ethyl-6-(6-morpholino-1H-benzo[d]imidazol-2-yl)-7-((1-(oxazol-4-yl)ethyl)-amino)-2H-pyrazolo[4,3-b]pyridin-5(4H)-one] | 657 nM | – | – | – |
| CC(Nc1c(-c2nc3ccc(OC4CCOCC4)cc3[nH]2)c(=O)[nH]c2cn(C)nc12)c1cocn1 (single isomer, unassigned) [Compound 37, (R*)-2-methyl-7-((1-(oxazol-4-yl)ethyl)amino)-6-(6-((tetrahydro-2H-pyran-4-yl)oxy)-1H-benzo[d]imidazol-2-yl)-2H-pyrazolo[4,3-b]pyridin-5(4H)-one] | 71.7 nM | – | – | – |
